Results published in ChEMBL document CHEMBL1201862, “PubChem BioAssay data set” (2004).
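Values below derive from 48-hour exposures of cells grown in 96-well plates, with endpoints linearly interpolated between the two concentrations bracketing the appropriate inhibition level. GI50 = concentration required for 50% inhibition of growth.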 Calls of active or inactive are those of the source. Rule as the data show it: active = GI50 up to about 1.1 µM and inactive = higher.

How the values were obtained:
Test in all cases: NCI tumour cell line growth inhibition, 48 h
Hs-578T = tested on: Hs-578T
HCT-116 = tested on: HCT-116
OVCAR-3 = tested on: OVCAR-3
SF-268 = tested on: SF-268
786-0 = tested on: 786-0
IGROV-1 = tested on: IGROV-1
SK-MEL-2 = tested on: SK-MEL-2
COLO 205 = tested on: COLO 205
A549 = tested on: A549
MDA-MB-435 = tested on: MDA-MB-435
UACC-257 = tested on: UACC-257
RPMI-8226 = tested on: RPMI-8226
SF-295 = tested on: SF-295
SK-MEL-28 = tested on: SK-MEL-28
NCI-H460 = tested on: NCI-H460
BT-549 = tested on: BT-549
NCI-H23 = tested on: NCI-H23
HL-60 = tested on: HL-60
M14 = tested on: M14
ACHN = tested on: ACHN
SN12C = tested on: SN12C
SK-MEL-5 = tested on: SK-MEL-5
U-251 = tested on: U-251
SNB-75 = tested on: SNB-75
HCC 2998 = tested on: HCC 2998
UO-31 = tested on: UO-31
SR = tested on: SR
SNB-19 = tested on: SNB-19
SW-620 = tested on: SW-620
OVCAR-4 = tested on: OVCAR-4
OVCAR-5 = tested on: OVCAR-5
LOX IMVI = tested on: LOX IMVI
MOLT-4 = tested on: MOLT-4
UACC-62 = tested on: UACC-62
SK-OV-3 = tested on: SK-OV-3
T47D = tested on: T47D
MDA-N = tested on: MDA-N
HT-29 = tested on: HT-29
DU-145 = tested on: DU-145
CAKI-1 = tested on: CAKI-1
HOP-62 = tested on: HOP-62
MDA-MB-231 = tested on: MDA-MB-231
EKVX = tested on: EKVX
CCRF-CEM = tested on: CCRF-CEM
NCI-H522 = tested on: NCI-H522
KM12 = tested on: KM12
Malme-3M = tested on: Malme-3M
PC-3 = tested on: PC-3
SF-539 = tested on: SF-539
HCT-15 = tested on: HCT-15
HOP-92 = tested on: HOP-92
NCI-H226 = tested on: NCI-H226
TK-10 = tested on: TK-10
K562 = tested on: K562
A498 = tested on: A498
RXF 393 = tested on: RXF 393
OVCAR-8 = tested on: OVCAR-8
NCI/ADR-RES = tested on: NCI/ADR-RES

## CN(CCN(C)C(=S)NN)C(=S)NN
Hs-578T
  GI50: > 100 µM (inactive)
HCT-116
  GI50: > 100 µM (inactive)
OVCAR-3
  GI50: > 100 µM (inactive)
SF-268
  GI50: > 100 µM (inactive)
786-0
  GI50: > 100 µM (inactive)
IGROV-1
  GI50: > 100 µM (inactive)
SK-MEL-2
  GI50: > 100 µM (inactive)
COLO 205
  GI50: > 100 µM (inactive)
A549
  GI50: > 100 µM (inactive)
MDA-MB-435
  GI50: > 100 µM (inactive)
UACC-257
  GI50: > 100 µM (inactive)
RPMI-8226
  GI50: > 100 µM (inactive)
SF-295
  GI50: > 100 µM (inactive)
SK-MEL-28
  GI50: > 100 µM (inactive)
NCI-H460
  GI50: > 100 µM (inactive)
BT-549
  GI50: > 100 µM (inactive)
NCI-H23
  GI50: > 100 µM (inactive)
HL-60
  GI50: > 100 µM (inactive)
M14
  GI50: > 100 µM (inactive)
ACHN
  GI50: > 100 µM (inactive)
SN12C
  GI50: > 100 µM (inactive)
SK-MEL-5
  GI50: > 100 µM (inactive)
U-251
  GI50: > 100 µM (inactive)
SNB-75
  GI50: > 100 µM (inactive)
HCC 2998
  GI50: > 100 µM (inactive)
UO-31
  GI50: > 100 µM (inactive)
SR
  GI50: > 100 µM (inactive)
SNB-19
  GI50: > 100 µM (inactive)
SW-620
  GI50: > 100 µM (inactive)
OVCAR-4
  GI50: > 100 µM (inactive)
OVCAR-5
  GI50: > 100 µM (inactive)
LOX IMVI
  GI50: > 100 µM (inactive)
MOLT-4
  GI50: > 100 µM (inactive)
UACC-62
  GI50: > 100 µM (inactive)
SK-OV-3
  GI50: > 100 µM (inactive)
T47D
  GI50: > 100 µM (inactive)
MDA-N
  GI50: > 100 µM (inactive)
HT-29
  GI50: > 100 µM (inactive)
DU-145
  GI50: > 100 µM (inactive)
CAKI-1
  GI50: > 100 µM (inactive)
HOP-62
  GI50: > 100 µM (inactive)
MDA-MB-231
  GI50: > 100 µM (inactive)
EKVX
  GI50: > 100 µM (inactive)
CCRF-CEM
  GI50: > 100 µM (inactive)
NCI-H522
  GI50: > 100 µM (inactive)
KM12
  GI50: > 100 µM (inactive)
Malme-3M
  GI50: > 100 µM (inactive)
PC-3
  GI50: > 100 µM (inactive)

## CC(C)(Cl)C(Br)CCC(C)(Br)C(Br)CBr (stereo not given)
Hs-578T
  GI50: 21.5 µM (inactive)
HCT-116
  GI50: 16 µM (inactive)
OVCAR-3
  GI50: 15.9 µM (inactive)
SF-268
  GI50: 16.9 µM (inactive)
786-0
  GI50: 17.4 µM (inactive)
IGROV-1
  GI50: 19.6 µM (inactive)
SK-MEL-2
  GI50: 14.7 µM (inactive)
COLO 205
  GI50: 16.9 µM (inactive)
SF-539
  GI50: 15.6 µM (inactive)
A549
  GI50: 30.1 µM (inactive)
MDA-MB-435
  GI50: 17.8 µM (inactive)
UACC-257
  GI50: 18.7 µM (inactive)
RPMI-8226
  GI50: 19.2 µM (inactive)
SF-295
  GI50: 17.7 µM (inactive)
HCT-15
  GI50: 17.1 µM
SK-MEL-28
  GI50: 17.2 µM (inactive)
NCI-H460
  GI50: 15.3 µM (inactive)
BT-549
  GI50: 22.3 µM (inactive)
HOP-92
  GI50: 21.5 µM (inactive)
NCI-H23
  GI50: 19.5 µM (inactive)
HL-60
  GI50: 17 µM (inactive)
M14
  GI50: 17.7 µM (inactive)
NCI-H226
  GI50: 18.8 µM (inactive)
TK-10
  GI50: 27.5 µM (inactive)
K562
  GI50: 23 µM (inactive)
A498
  GI50: 19.3 µM (inactive)
ACHN
  GI50: 17.4 µM (inactive)
RXF 393
  GI50: 22.1 µM (inactive)
SN12C
  GI50: 20 µM (inactive)
SK-MEL-5
  GI50: 14.6 µM (inactive)
OVCAR-8
  GI50: 16.2 µM (inactive)
U-251
  GI50: 16.5 µM (inactive)
NCI/ADR-RES
  GI50: 17 µM (inactive)
HCC 2998
  GI50: 13.1 µM (inactive)
UO-31
  GI50: 19 µM (inactive)
SNB-19
  GI50: 23.1 µM (inactive)
SW-620
  GI50: 16.3 µM (inactive)
OVCAR-4
  GI50: 18.7 µM (inactive)
OVCAR-5
  GI50: 15.7 µM (inactive)
MOLT-4
  GI50: 19.6 µM (inactive)
UACC-62
  GI50: 17.7 µM (inactive)
SK-OV-3
  GI50: 29.1 µM (inactive)
T47D
  GI50: 18.7 µM (inactive)
MDA-N
  GI50: 19.5 µM (inactive)
HT-29
  GI50: 15.8 µM (inactive)
DU-145
  GI50: 19.6 µM (inactive)
HOP-62
  GI50: 16.1 µM (inactive)
MDA-MB-231
  GI50: 12.9 µM (inactive)
EKVX
  GI50: 25.4 µM (inactive)
CCRF-CEM
  GI50: 10.5 µM (inactive)
NCI-H522
  GI50: 13 µM (inactive)
KM12
  GI50: 17.8 µM (inactive)
Malme-3M
  GI50: 17.4 µM (inactive)
PC-3
  GI50: 24.9 µM (inactive)

## Cc1ccc(/C=N/n2c(Cc3ccccc3)n[nH]c2=O)cc1
Hs-578T
  GI50: 65.2 µM (inactive)
HCT-116
  GI50: > 100 µM (inactive)
OVCAR-3
  GI50: > 100 µM (inactive)
SF-268
  GI50: > 100 µM (inactive)
786-0
  GI50: 80.9 µM (inactive)
IGROV-1
  GI50: > 100 µM (inactive)
COLO 205
  GI50: > 100 µM (inactive)
SF-539
  GI50: > 100 µM (inactive)
A549
  GI50: > 100 µM (inactive)
UACC-257
  GI50: > 100 µM (inactive)
RPMI-8226
  GI50: > 100 µM (inactive)
SF-295
  GI50: 35.9 µM (inactive)
HCT-15
  GI50: > 100 µM
SK-MEL-28
  GI50: > 100 µM (inactive)
NCI-H460
  GI50: > 100 µM (inactive)
BT-549
  GI50: 19.8 µM (inactive)
HOP-92
  GI50: 37 µM (inactive)
NCI-H23
  GI50: > 100 µM (inactive)
HL-60
  GI50: > 100 µM (inactive)
M14
  GI50: > 100 µM (inactive)
NCI-H226
  GI50: > 100 µM (inactive)
TK-10
  GI50: > 100 µM (inactive)
K562
  GI50: > 100 µM (inactive)
A498
  GI50: > 100 µM (inactive)
ACHN
  GI50: > 100 µM (inactive)
RXF 393
  GI50: > 100 µM (inactive)
SN12C
  GI50: > 100 µM (inactive)
SK-MEL-5
  GI50: > 100 µM (inactive)
OVCAR-8
  GI50: > 100 µM (inactive)
SNB-75
  GI50: 40.2 µM (inactive)
NCI/ADR-RES
  GI50: > 100 µM (inactive)
HCC 2998
  GI50: > 100 µM (inactive)
UO-31
  GI50: > 100 µM (inactive)
SR
  GI50: > 100 µM (inactive)
SNB-19
  GI50: > 100 µM (inactive)
SW-620
  GI50: > 100 µM (inactive)
OVCAR-4
  GI50: > 100 µM (inactive)
OVCAR-5
  GI50: > 100 µM (inactive)
LOX IMVI
  GI50: > 100 µM (inactive)
MOLT-4
  GI50: > 100 µM (inactive)
T47D
  GI50: > 100 µM (inactive)
MDA-N
  GI50: > 100 µM (inactive)
HT-29
  GI50: > 100 µM (inactive)
DU-145
  GI50: > 100 µM (inactive)
CAKI-1
  GI50: 28.6 µM (inactive)
HOP-62
  GI50: 37.2 µM (inactive)
MDA-MB-231
  GI50: > 100 µM (inactive)
EKVX
  GI50: > 100 µM (inactive)
CCRF-CEM
  GI50: > 100 µM (inactive)
NCI-H522
  GI50: > 100 µM (inactive)
KM12
  GI50: > 100 µM (inactive)
Malme-3M
  GI50: > 100 µM (inactive)
PC-3
  GI50: > 100 µM (inactive)
